# Literature values as cited in patent US20220001038A1, “CONJUGATES FOR DETECTION OF AXILLARY LYMPH NODE METASTASES” (H. LEE MOFFITT CANCER CENTER AND RESEARCH INSTITUTE, INC., priority 2017, published 2022).
# System: hCA IX and XII
smiles,measurement,value
[N-]=[N+]=NCCCCCCOc1ccc(-c2nn(-c3ccccc3)cc2-c2nc3ccccc3[nH]2)cc1 [compound 6],affinity/selectivity for CAIX and CAXII (in words),inhibitor with hCA IX and XII selectivity
